Test results: ChEMBL document CHEMBL1152860, “Synthesis and antiproliferative activity of 3-amino-N-phenyl-1H-indazole-1-carboxamides” (2009)

How the values were obtained:
Assay type in all cases: functional
DU-145 = experiment: Growth inhibition of human DU145 cells after 48 hrs by SRB assay; details: DU-145, 48 h
SK-MEL-2 = experiment: Growth inhibition of human SK-MEL-2 cells after 48 hrs by SRB assay; details: SK-MEL-2, 48 h
UO-31 = experiment: Growth inhibition of human UO31 cells after 48 hrs by SRB assay; details: UO-31, 48 h
SNB-19 = experiment: Growth inhibition of human SNB19 cells after 48 hrs by SRB assay; details: SNB-19, 48 h
SF-295 = experiment: Growth inhibition of human SF295 cells after 48 hrs by SRB assay; details: SF-295, 48 h
TK-10 = experiment: Growth inhibition of human TK10 cells after 48 hrs by SRB assay; details: TK-10, 48 h
SW-620 = experiment: Growth inhibition of human SW620 cells after 48 hrs by SRB assay; details: SW-620, 48 h
CAKI-1 = experiment: Growth inhibition of human Caki1 cells after 48 hrs by SRB assay; details: CAKI-1, 48 h
HCT-116 = experiment: Growth inhibition of human HCT116 cells after 48 hrs by SRB assay; details: HCT-116, 48 h
NCI-H23 = experiment: Growth inhibition of human NCI-H23 cells after 48 hrs by SRB assay; details: NCI-H23, 48 h
HCT-15 = experiment: Growth inhibition of human HCT15 cells after 48 hrs by SRB assay; details: HCT-15, 48 h
SR = experiment: Growth inhibition of human SR cells after 48 hrs by SRB assay
HOP-92 = experiment: Growth inhibition of human HOP92 cells after 48 hrs by SRB assay; details: HOP-92, 48 h
OVCAR-4 = experiment: Growth inhibition of human OVCAR4 cells after 48 hrs by SRB assay; details: OVCAR-4, 48 h
A498 = experiment: Growth inhibition of human A498 cells after 48 hrs by SRB assay; details: A498, 48 h
EKVX = experiment: Growth inhibition of human EKVX cells after 48 hrs by SRB assay
OVCAR-8 = experiment: Growth inhibition of human OVCAR8 cells after 48 hrs by SRB assay; details: OVCAR-8, 48 h
COLO 205 = experiment: Growth inhibition of human COLO205 cells after 48 hrs by SRB assay; details: COLO 205, 48 h
OVCAR-5 = experiment: Growth inhibition of human OVCAR5 cells after 48 hrs by SRB assay; details: OVCAR-5, 48 h
LOX IMVI = experiment: Growth inhibition of human LOXIMVI cells after 48 hrs by SRB assay
NCI-H522 = experiment: Growth inhibition of human NCI-H522 cells after 48 hrs by SRB assay; details: NCI-H522, 48 h
UACC-62 = experiment: Growth inhibition of human UACC62 cells after 48 hrs by SRB assay; details: UACC-62, 48 h
BT-549 = experiment: Growth inhibition of human BT549 cells after 48 hrs by SRB assay; details: BT-549, 48 h
SN12C = experiment: Growth inhibition of human SN12C cells after 48 hrs by SRB assay
HT-29 = experiment: Growth inhibition of human HT-29 cells after 48 hrs by SRB assay; details: HT-29, 48 h
RPMI-8226 = experiment: Growth inhibition of human RPMI8226 cells after 48 hrs by SRB assay; details: RPMI-8226, 48 h
RXF 393 = experiment: Growth inhibition of human […] cells after 48 hrs by SRB assay; details: RXF 393, 48 h
SF-268 = experiment: Growth inhibition of human SF268 cells after 48 hrs by SRB assay; details: SF-268, 48 h
A549 = experiment: Growth inhibition of human A549 cells after 48 hrs by SRB assay; details: A549, 48 h
NCI-H322M = experiment: Growth inhibition of human NCI-H322M cells after 48 hrs by SRB assay
ACHN = experiment: Growth inhibition of human ACHN cells after 48 hrs by SRB assay
HCC 2998 = experiment: Growth inhibition of human HCC2998 cells after 48 hrs by SRB assay; details: HCC 2998, 48 h
MCF7 = experiment: Growth inhibition of human MCF7 cells after 48 hrs by SRB assay; details: MCF7, 48 h
PC-3 = experiment: Growth inhibition of human PC3 cells after 48 hrs by SRB assay; details: PC-3, 48 h
T47D = experiment: Growth inhibition of human T47D cells after 48 hrs by SRB assay
OVCAR-3 = experiment: Growth inhibition of human OVCAR-3 cells after 48 hrs by SRB assay; details: OVCAR-3, 48 h
HOP-62 = experiment: Growth inhibition of human HOP62 cells after 48 hrs by SRB assay; details: HOP-62, 48 h
MDA-MB-231 = experiment: Growth inhibition of human MDA-MB-231 cells after 48 hrs by SRB assay; details: MDA-MB-231, 48 h
SK-OV-3 = experiment: Growth inhibition of human SKOV3 cells after 48 hrs by SRB assay; details: SK-OV-3, 48 h
HL-60(TB) = experiment: Growth inhibition of human HL-60(TB) cells after 48 hrs by SRB assay; details: HL-60, 48 h
M14 = experiment: Growth inhibition of human M14 cells after 48 hrs by SRB assay; details: M14, 48 h
K562 = experiment: Growth inhibition of human K562 cells after 48 hrs by SRB assay; details: K562, 48 h
SK-MEL-5 = experiment: Growth inhibition of human SK-MEL-5 cells after 48 hrs by SRB assay; details: SK-MEL-5, 48 h
[1] = Growth inhibition of human Hs 578T cells after 48 hrs by SRB assay
KM12 = experiment: Growth inhibition of human KM12 cells after 48 hrs by SRB assay; details: KM12, 48 h
SF-539 = experiment: Growth inhibition of human SF539 cells after 48 hrs by SRB assay; details: SF-539, 48 h
NCI-H460 = experiment: Growth inhibition of human NCI-H460 cells after 48 hrs by SRB assay; details: NCI-H460, 48 h
Malme-3M = experiment: Growth inhibition of human MALME-3M cells after 48 hrs by SRB assay
NCI/ADR-RES = experiment: Growth inhibition of human NCI/ADR-RES cells after 48 hrs by SRB assay
IGROV-1 = experiment: Growth inhibition of human IGROV1 cells after 48 hrs by SRB assay; details: IGROV-1, 48 h
786-0 = experiment: Growth inhibition of human 786-0 cells after 48 hrs by SRB assay; details: 786-0, 48 h
UACC-257 = experiment: Growth inhibition of human UACC257 cells after 48 hrs by SRB assay; details: UACC-257, 48 h
U-251 = experiment: Growth inhibition of human U251 cells after 48 hrs by SRB assay; details: U-251, 48 h
MDA-MB-435 = experiment: Growth inhibition of human MDA-MB-435 cells after 48 hrs by SRB assay; details: MDA-MB-435, 48 h
MOLT-4 = experiment: Growth inhibition of human MOLT4 cells after 48 hrs by SRB assay; details: MOLT-4, 48 h
SNB-75 = experiment: Growth inhibition of human SNB75 cells after 48 hrs by SRB assay; details: SNB-75, 48 h
CCRF-CEM = experiment: Growth inhibition of human CCRF-CEM cells after 48 hrs by SRB assay
NCI-H226 = experiment: Growth inhibition of human NCI-H226 cells after 48 hrs by SRB assay; details: NCI-H226, 48 h
SK-MEL-28 = experiment: Growth inhibition of human SK-MEL-28 cells after 48 hrs by SRB assay; details: SK-MEL-28, 48 h

COc1ccc(NC(=O)Nc2n[nH]c3ccccc23)cc1
GI50 (DU-145): > 100 µM | GI50 (SK-MEL-2): > 100 µM | GI50 (UO-31): > 100 µM | GI50 (SNB-19): > 100 µM | GI50 (SF-295): > 100 µM | GI50 (TK-10): > 100 µM | GI50 (SW-620): > 100 µM | GI50 (CAKI-1): > 100 µM | GI50 (HCT-116): > 100 µM | GI50 (NCI-H23): > 100 µM | GI50 (HCT-15): > 100 µM | GI50 (SR): > 100 µM | GI50 (HOP-92): > 100 µM | GI50 (OVCAR-4): > 100 µM | GI50 (A498): > 100 µM | GI50 (EKVX): > 100 µM | GI50 (OVCAR-8): > 100 µM | GI50 (COLO 205): > 100 µM | GI50 (OVCAR-5): > 100 µM | GI50 (LOX IMVI): > 100 µM | GI50 (NCI-H522): > 100 µM | GI50 (UACC-62): > 100 µM | GI50 (BT-549): > 100 µM | GI50 (SN12C): > 100 µM | GI50 (HT-29): > 100 µM | GI50 (RPMI-8226): > 100 µM | GI50 (RXF 393): > 100 µM | GI50 (SF-268): > 100 µM | GI50 (A549): > 100 µM | GI50 (NCI-H322M): > 100 µM | GI50 (ACHN): > 100 µM | GI50 (HCC 2998): > 100 µM | GI50 (MCF7): > 100 µM | GI50 (PC-3): > 100 µM | GI50 (T47D): 100 µM | GI50 (OVCAR-3): > 100 µM | GI50 (HOP-62): > 100 µM | GI50 (MDA-MB-231): > 100 µM | GI50 (SK-OV-3): > 100 µM | GI50 (HL-60(TB)): > 100 µM | GI50 (M14): > 100 µM | GI50 (K562): > 100 µM | GI50 (SK-MEL-5): > 100 µM | GI50 [1]: > 100 µM | GI50 (KM12): > 100 µM | GI50 (SF-539): > 100 µM | GI50 (NCI-H460): > 100 µM | GI50 (Malme-3M): > 100 µM | GI50 (NCI/ADR-RES): > 100 µM | GI50 (IGROV-1): > 100 µM | GI50 (786-0): > 100 µM | GI50 (UACC-257): > 100 µM | GI50 (U-251): > 100 µM | GI50 (MDA-MB-435): > 100 µM | GI50 (MOLT-4): > 100 µM | GI50 (SNB-75): > 100 µM | GI50 (CCRF-CEM): 59.6 µM | GI50 (NCI-H226): > 100 µM | GI50 (SK-MEL-28): > 100 µM
